Results taken from article PMC10902181 (Journal of neurochemistry, 2023).

Tests used:
WT GluN1/GluN2A [1] = biological target: T1, WT GluN1/GluN2A (Homo sapiens, UniProt Q05586+Q12879); experiment: Current-voltage curves; settings: WT 2A, 1 mM Mg^2+ alone
GluN1/GluN2A-L611Q [2] = biological target: T2, GluN1/GluN2A-L611Q (Homo sapiens, UniProt Q05586+Q12879, L611Q); experiment: Current-voltage curves; settings: 2A-L611Q, 1 mM Mg^2+ alone
WT GluN1/GluN2B [3] = biological target: T3, WT GluN1/GluN2B (Homo sapiens, UniProt Q05586+Q13224); experiment: Current-voltage curves; settings: WT 2B, 1 mM Mg^2+ alone
GluN1/GluN2B-V620M = GluN1/GluN2B-V620M (Homo sapiens, UniProt Q05586+Q13224, V620M); experiment: Current-voltage curves; settings: 2B-V620M
GluN1/GluN2B-N615I = GluN1/GluN2B-N615I (Homo sapiens, UniProt Q05586+Q13224, N615I); experiment: TEVC current recordings from Xenopus oocytes, channel blocker inhibition; format: cell-based; settings: for % inhibition: 2B-N615I, 100 μM blocker, −40 mV
GluN1/GluN2B-N615K = GluN1/GluN2B-N615K (Homo sapiens, UniProt Q05586+Q13224, N615K); experiment: as above; format: cell-based; settings: 2B-N615K, 100 μM blocker, −40 mV
WT GluN1/GluN2A [4] = biological target: T1, WT GluN1/GluN2A; experiment: as above; format: cell-based; settings: WT GluN1/WT 2A, 100 μM blocker, −40 mV
[5] = biological target: GluN2A-N615K-containing NMDARs (Homo sapiens, UniProt Q05586+Q12879, N615K); experiment: as above; format: cell-based; settings: 2A-N615K, 100 μM blocker, −40 mV
[6] = biological target: GluN2B-V620M-containing NMDARs (Homo sapiens, UniProt Q05586+Q13224, V620M); experiment: as above; format: cell-based; settings: 2B-V620M, 100 μM blocker, −40 mV
[7] = biological target: GluN2A-N614S-containing NMDARs (Homo sapiens, UniProt Q05586+Q12879, N614S); experiment: as above; format: cell-based; settings: for % inhibition: 2A-N614S, 100 μM blocker, −40 mV
[8] = biological target: GluN2B-W607C-containing NMDARs (Homo sapiens, UniProt Q05586+Q13224, W607C); experiment: as above; format: cell-based; settings: 2B-W607C, 100 μM blocker, −40 mV
[9] = biological target: GluN2B-G611V-containing NMDARs (Homo sapiens, UniProt Q05586+Q13224, G611V); experiment: as above; format: cell-based; settings: 2B-G611V, 100 μM blocker, −40 mV
GluN1-G620R/GluN2A = GluN1-G620R/GluN2A (Homo sapiens, UniProt Q05586+Q12879, G620R); experiment: as above; format: cell-based; settings: for % inhibition: 1-G620R/2A, 100 μM blocker, −40 mV
[10] = biological target: GluN2B-V618G-containing NMDARs (Homo sapiens, UniProt Q05586+Q13224, V618G); experiment: as above; format: cell-based; settings: 2B-V618G, 100 μM blocker, −40 mV
GluN1/GluN2A-L611Q [11] = biological target: T2, GluN1/GluN2A-L611Q; experiment: as above; format: cell-based; settings: for % inhibition: 2A-L611Q, 100 μM blocker, −40 mV
[12] = biological target: GluN2B-N616K-containing NMDARs (Homo sapiens, UniProt Q05586+Q13224, N616K); experiment: as above; format: cell-based; settings: 2B-N616K, 100 μM blocker, −40 mV
WT GluN1/GluN2B [13] = biological target: T3, WT GluN1/GluN2B; experiment: as above; format: cell-based; settings: WT GluN1/WT 2B, 100 μM blocker, −40 mV

SMILES: [Mg+2] [Mg^2+]
- z δ (WT GluN1/GluN2A [1]): 1.97
- Kd (WT GluN1/GluN2A [1]; read-out: KD, 0 mV): 1.52 mM
- z δ (GluN1/GluN2A-L611Q [2]): 1.21
- Kd (GluN1/GluN2A-L611Q [2]; read-out: KD, 0 mV): 13 mM
- z δ (WT GluN1/GluN2B [3]): 1.96
- Kd (WT GluN1/GluN2B [3]; read-out: KD, 0 mV): 1.83 mM
- z δ (GluN1/GluN2B-V620M; 1 mM Mg^2+ alone): 1.47
- Kd (GluN1/GluN2B-V620M; read-out: KD, 0 mV, 1 mM Mg^2+ alone): 3.93 mM

SMILES: CC12CC3CC(C)(C1)CC(N)(C3)C2 [memantine]
- % inhibition (GluN1/GluN2B-N615I; w/ 1 mM Mg^2+): 98 ± 0.7% (13)
- % inhibition (GluN1/GluN2B-N615I; w/o Mg^2+): 96 ± 1.1% (11)
- enhanced potency in comparison to WT NMDARs (GluN1/GluN2B-N615I; GluN2B-N615I, absence of Mg^2+): 4.3 fold
- enhanced potency compared to the WT receptors (GluN1/GluN2B-N615I; GluN2B-N615I, presence of 1 mM Mg^2+): 7.2 fold
- % inhibition (GluN1/GluN2B-N615K; w/ 1 mM Mg^2+): 12 ± 1.9% (21) ^*^¥
- % inhibition (GluN1/GluN2B-N615K; w/o Mg^2+): 22 ± 2.5% (14)^¥
- % inhibition (WT GluN1/GluN2A [4]; w/ 1 mM Mg^2+): 89 ± 1.3% (30)
- % inhibition (WT GluN1/GluN2A [4]; w/o Mg^2+): 94 ± 1.2% (15)
- % inhibition ([5]; w/ 1 mM Mg^2+): 81 ± 1.6% (8) ^*^¥
- % inhibition ([5]; w/o Mg^2+): 90 ± 2.5% (7)
- % inhibition ([6]; w/ 1 mM Mg^2+): 95 ± 0.7% (7)
- % inhibition ([6]; w/o Mg^2+): 96 ± 0.7% (8)
- % inhibition ([7]; w/ 1 mM Mg^2+): 25 ± 6.1% (10) ^*^¥
- % inhibition ([7]; w/o Mg^2+): 60 ± 4.1% (9)^¥
- reduced sensitivity compared to the WT receptors ([7]; GluN2A-N614S, presence of 1 mM Mg^2+): 9 fold
- % inhibition ([8]; w/ 1 mM Mg^2+): 92 ± 2.8% (11)
- % inhibition ([8]; w/o Mg^2+): 91 ± 2.0% (10)
- % inhibition ([9]; w/ 1 mM Mg^2+): 97 ± 1.2% (14)
- % inhibition ([9]; w/o Mg^2+): 95 ± 1.4% (10)
- % inhibition (GluN1-G620R/GluN2A; w/ 1 mM Mg^2+): 98 ± 0.4 (8) %
- % inhibition (GluN1-G620R/GluN2A; w/o Mg^2+): 96 ± 1.3% (8)
- increased potency in 1 mM Mg^2+ compared to the same variant in the absence of Mg^2+ (GluN1-G620R/GluN2A; GluN1-G620R): 2.4 fold
- enhanced potency in comparison to WT NMDARs (GluN1-G620R/GluN2A; GluN1-G620R, absence of Mg^2+): 2.7 fold
- enhanced potency compared to the WT receptors (GluN1-G620R/GluN2A; GluN1-G620R, presence of 1 mM Mg^2+): 17 fold
- % inhibition ([10]; w/ 1 mM Mg^2+): 87 ± 2.1% (14)^¥
- % inhibition ([10]; w/o Mg^2+): 85 ± 1.5% (16)^¥
- % inhibition (GluN1/GluN2A-L611Q [11]; w/ 1 mM Mg^2+): 94 ± 0.6% (9)
- % inhibition (GluN1/GluN2A-L611Q [11]; w/o Mg^2+): 87 ± 2.1% (12)
- increased potency in 1 mM Mg^2+ compared to the same variant in the absence of Mg^2+ (GluN1/GluN2A-L611Q [11]; GluN2A-L611Q): 3.1 fold
- enhanced potency compared to the WT receptors (GluN1/GluN2A-L611Q [11]; GluN2A-L611Q, presence of 1 mM Mg^2+): 3.7 fold
- % inhibition ([12]; w/ 1 mM Mg^2+): 88 ± 1.6% (24)^¥
- % inhibition ([12]; w/o Mg^2+): 93 ± 1.8% (7)
- % inhibition (WT GluN1/GluN2B [13]; w/ 1 mM Mg^2+): 93 ± 0.8% (26)
- % inhibition (WT GluN1/GluN2B [13]; w/o Mg^2+): 97 ± 1.1% (18)
- z δ (apparent, combined block) (GluN1/GluN2B-V620M; 1 mM Mg^2+ + 0.3 μM memantine): 1.54
- z δ (apparent, combined block) (GluN1/GluN2B-V620M; 1 mM Mg^2+ + 1.0 μM memantine): 1.52
- z δ (apparent, combined block) (GluN1/GluN2B-V620M; 1 mM Mg^2+ + 3.0 μM memantine): 1.38
- z δ (apparent, combined block) (GluN1/GluN2B-V620M; 1 mM Mg^2+ + 10 μM memantine): 1.28
